How the values were obtained:
[1] = test system: lysosomes of ApoE4+/+ / ApoE3+/+ neurons; assay: lysosome size and number (Lysotracker, confocal) in neurons of iPSC-derived neuron and astrocyte co-culture; format: cell-based, human
Protocol: Mouse Neuronal and human iPSC culture. Primary cortical neurons were cultured (Zhu L et al., Proc Natl Acad Sci USA 2015, and Zhu L et al., J Biol Chem 2013) before being fixed and stained for confocal microscopy analysis (Zeiss LSM) (Berg I et al., Nat Protoc 2010). In some conditions, bovine serum albumin (BSA) or receptor-associated protein (RAP) was included in the cultured media (N=3/group). Alternatively, cultured neurons were transfected with adeno-associated virus 2 (AAV2)-containing miR-195-5p or miR-374 or scramble controls for 5 days before subjected to analysis. The ApoE4^+/+ and ApoE3^+/+ iPSCs were differentiated into neural progenitor cells (NPCs) by dual SMAD inhibition followed by neural rosette selection and forebrain-specific patterning by 20 ng/ml FGF2 exposure (Bowles K R et al., PloS one 2019, and Tcw J et al., Stem cell reports 2017). These NPCs were purified by MACS for CD271^−/CD133^+ (Bowles K R et al., PloS one 2019) and differentiated to cortical neurons (Bardy C et al., Proc Natl Acad Sci USA 2015, and Paquet D et al., Nature 2016) and a homogeneous population of astrocytes (Tcw J et al., Stem cell reports 2017, and Shaltouki A et al., Stem Cells 2013) before subjected to viral transfection and confocal microscopy analysis. Alternatively, mouse cortical neurons derived from ApoE4^+/+ and ApoE3^+/+ KI mice with synj1^+/+ or synj1^−/− genotypes were co-cultured with ApoE4^+/+ and ApoE3^+/+ iPSC-derived pure astrocytes. In some experiments, cultured neurons were transfected with AAV2-containing miR-195-5p, scramble controls or miR195 inhibitors that specifically prevent miR-195-5p binding to its target mRNA before co-culturing with iPSC-derived astrocytes. Cultured iPSC-derived neurons and astrocytes were then incubated with lysotracker red for various time periods before fixation and double-stained for pTau and a nuclear marker DAPI (blue) for confocal microscopy analysis (Zeiss). N=4-5/condition.

ApoE4+/+ FAD mice = assay: novel object recognition (NOR) after hippocampal AAV2 injection, ApoE KI mice with 5xFAD background (EFAD); format: in vivo, mouse; settings: male ApoE4+/+ FAD mice
Text: (§1) Animal models. Human ApoE4^+/+ or ApoE3^+/+ knock-in (KI) mouse models without (Grootendorst J et al., Behavioural brain research 2005, Rodriguez G A et al., Learn Mem 2013, and Wang C et al., Neurobiology of disease 2005) or with 5×FAD background (Balu D et al., Neurosci Lett 2019, and Tai L M et al., J Lipid Res 2017) were genotyped (Zhong L et al., Mol Neurodegener 2016). Sex as a biological variable was taken into considerations with inclusion of both male and female mice in the experiments.
(§2) Stereotaxic injection and behavior studies. Eight to nine weeks old male and female ApoE3^+/+ and ApoE4^+/+ KI mice without 5×FAD background (N=19-23/group), or with 5×FAD background (N=15-17/group) were placed in the stereotaxic apparatus with AAV2 or scramble virus administered into the dorsal CA1 regions of bilateral hippocampal brain regions using pressure injection (Labonte B et al., Nat Med 2017, and Passini M A et al., The Journal of neuroscience 2006). Injection volumes (0.5-2.0 μl) were delivered over 10 min to avoid tissue damage. Six to nine months after viral delivery, mice were tested with the NOR task (Zhu L et al., Proc Natl Acad Sci USA 2015, Elder G A et al., J Neurotrauma 2012, and Howlett D R et al., Brain Res 2004). Mice were randomized for genotype and sex, and blinded throughout the behavior data collection and analysis, surgical manipulations, and sample collection.

pTau = pTau levels in iPSC-derived brain cell culture (AT8 staining, ELISA); format: cell-based, human; settings: iPSC-derived neuron and astrocyte co-culture
Protocol: (§3) Mouse Neuronal and human iPSC culture. Primary cortical neurons were cultured (Zhu L et al., Proc Natl Acad Sci USA 2015, and Zhu L et al., J Biol Chem 2013) before being fixed and stained for confocal microscopy analysis (Zeiss LSM) (Berg I et al., Nat Protoc 2010). In some conditions, bovine serum albumin (BSA) or receptor-associated protein (RAP) was included in the cultured media (N=3/group). Alternatively, cultured neurons were transfected with adeno-associated virus 2 (AAV2)-containing miR-195-5p or miR-374 or scramble controls for 5 days before subjected to analysis. The ApoE4^+/+ and ApoE3^+/+ iPSCs were differentiated into neural progenitor cells (NPCs) by dual SMAD inhibition followed by neural rosette selection and forebrain-specific patterning by 20 ng/ml FGF2 exposure (Bowles K R et al., PloS one 2019, and Tcw J et al., Stem cell reports 2017). […]
(§4) Brain and neuronal sample preparation and biochemical analysis. […] Levels of Aβ42, Aβ40, pTau, Tau and ApoE were determined using high-sensitive ELISA kits. […]

[2] = test system: lysosomes of synj1+/+ and synj1-/- neurons; assay: lysosome size in mouse synj1+/+ and synj1-/- neurons co-cultured with ApoE4+/+ iPSC-derived astrocytes; format: cell-based
Protocol: as §3, with “2017). These NPCs were purified by MACS for CD271^−/CD133^+ (Bowles K R et al., PloS one 2019) and differentiated to cortical neurons (Bardy C et al., Proc Natl Acad Sci USA 2015, and Paquet D et al., Nature 2016) and a homogeneous population of astrocytes (Tcw J et al., Stem cell reports 2017, and Shaltouki A et al., Stem Cells 2013) before subjected to viral transfection and confocal microscopy analysis.” for “2017).”

[3] = test system: ApoE4+/+ or ApoE3+/+ knock-in (KI) mice; assay: novel object recognition (NOR) after hippocampal AAV2 injection, ApoE KI mice; format: in vivo, mouse
Text: as §1, §2

ApoE = assay: brain ApoE levels in ApoE KI mice after miR-195 over-expression; format: in vivo; settings: ApoE4+/+ or ApoE3+/+ mouse brains
Protocol: (§5) Stereotaxic injection and behavior studies. Eight to nine weeks old male and female ApoE3^+/+ and ApoE4^+/+ KI mice without 5×FAD background (N=19-23/group), or with 5×FAD background (N=15-17/group) were placed in the stereotaxic apparatus with AAV2 or scramble virus administered into the dorsal CA1 regions of bilateral hippocampal brain regions using pressure injection (Labonte B et al., Nat Med 2017, and Passini M A et al., The Journal of neuroscience 2006). Injection volumes (0.5-2.0 μl) were delivered over 10 min to avoid tissue damage. […]
as §4
(§6) Statistical analysis. […] Levels of miR-195-5p and miR-374 were normalized to U6 and RNU6B (internal controls) while synj1 mRNA normalized to GAPDH and 18s, and then expressed as Log2fold of changes when compared to controls. Levels of synj1, dyn1, pTau, Tau, and holoAPP were normalized to β-actin levels and expressed as a percentage of the control. Absolute Aβ42, Aβ40, pTau, Tau, and ApoE concentrations were quantitatively determined by ELISA and expressed as a percentage of the control. […] Pearson correlation coefficients were calculated to determine the linear relationship between the two variables. […]

phospho-Tau (pTau) = assay: brain pTau levels in ApoE KI mice after miR-195 over-expression; format: in vivo, mouse
Protocol: as §5, §4, §6

Sequence: UAGCAGCACAGAAAUAUUGGC (chemistry not given here) [miR-195-5p, over-expressed via AAV2-containing miR-195-5p from ABM Inc]
- lysosomal phenotypes compared to baseline ([1]; ApoE3+/+ neurons): No significant differences
- neurons with lysosome diameter between 0 to 10 μm ([1]; ApoE4+/+ neurons): 53.3%
- neurons with >10 lysosomes/cell ([1]; ApoE4+/+ neurons, baseline 18.4%): 1.7%
- NOR preference index (ApoE4+/+ FAD mice; scramble controls 37.8%): 63.1%
- NOR discrimination index (ApoE4+/+ FAD mice; scramble controls -0.245): 0.262
- pTau levels (fluorescent staining and ELISA) (pTau): reduced
- size of lysosomes ([2]; synj1+/+ neurons, control 101.5 μm^2): 75.8 μm^2
- size of lysosomes ([2]; synj1-/- neurons, control 77.0 μm^2): 69.7 μm^2
- NOR, scramble versus miR-195-5p over-expressing animals ([3]; ApoE3+/+ KI mice): no statistically significant differences
- NOR preference index ([3]; ApoE4+/+ KI mice, viral delivery to bilateral hippocampi, scramble controls 42.9%): 61.5%
- NOR discrimination index ([3]; ApoE4+/+ KI mice, scramble controls −0.144): 0.231
- ApoE levels (ApoE): No significant changes
- ApoE levels (ApoE; listed as miR-195): no significant changes
- pTau levels (phospho-Tau (pTau); ApoE3+/+ mice): Trends of reduction
- brain phospho-Tau (pTau) levels (phospho-Tau (pTau); ApoE4+/+ KI mouse hippocampus, scramble controls 81.3): 39.1 % of controls

From patent US20240301408A1, “MICRORNA 195 COMPOSITIONS AND METHODS FOR TREATING COGNITIVE IMPAIRMENT” (UNITED STATES GOVERNMENT AS REPRESENTED BY THE DEPARTMENT …, priority 2021, published 2024)
